From the NIST ThermoML archive (doi:10.1016/j.jct.2018.08.035)

Assay: xn = mol fraction of the nth substance listed
Settings: 100 kPa, Liquid, Vibrating tube method

CCC(O)CC [3-pentanol] + C[N+](=O)[O-]
Settings | mass density [kg/m3]
289.95 K, x1 = 0.3 | 1001.59
289.95 K, x1 = 0.325 | 997.479
289.95 K, x1 = 0.382 | 989.628
289.95 K, x1 = 0.414 | 986.685
289.95 K, x1 = 0.486 | 972.227
289.95 K, x1 = 0.488 | 969.425
289.95 K, x1 = 0.546 | 945.729
289.95 K, x1 = 0.573 | 926.782
289.95 K, x1 = 0.587 | 917.014
289.95 K, x1 = 0.615 | 902.235
289.96 K, x1 = 0.246 | 1008.64
289.96 K, x1 = 0.338 | 995.659
289.96 K, x1 = 0.363 | 992.594
289.96 K, x1 = 0.407 | 986.452
290.05 K, x1 = 0.266 | 1004.43
290.05 K, x1 = 0.325 | 996.695
290.05 K, x1 = 0.573 | 925.737
290.05 K, x1 = 0.587 | 916.65
290.06 K, x1 = 0.246 | 1008.03
290.06 K, x1 = 0.275 | 1005.08
290.06 K, x1 = 0.3 | 1000.6
290.06 K, x1 = 0.338 | 994.875
290.06 K, x1 = 0.363 | 991.838
290.06 K, x1 = 0.382 | 988.825
290.06 K, x1 = 0.407 | 985.25
290.06 K, x1 = 0.414 | 985.261
290.06 K, x1 = 0.486 | 971.285
290.06 K, x1 = 0.488 | 967.998
290.06 K, x1 = 0.546 | 944.207
290.06 K, x1 = 0.615 | 897.967
290.15 K, x1 = 0.246 | 1007.82
290.15 K, x1 = 0.266 | 1003.31
290.15 K, x1 = 0.275 | 1003.66
290.15 K, x1 = 0.3 | 999.813
290.15 K, x1 = 0.325 | 995.904
290.15 K, x1 = 0.363 | 990.879
290.15 K, x1 = 0.382 | 987.982
290.15 K, x1 = 0.407 | 984.083
290.15 K, x1 = 0.414 | 984.081
290.15 K, x1 = 0.486 | 970.021
290.15 K, x1 = 0.488 | 967.145
290.15 K, x1 = 0.546 | 942.592
290.15 K, x1 = 0.573 | 923.887
290.15 K, x1 = 0.587 | 916.211
290.15 K, x1 = 0.615 | 897.189
290.15 K, x1 = 0.629 | 888.276
290.16 K, x1 = 0.338 | 994.25
290.25 K, x1 = 0.246 | 1007.68
290.25 K, x1 = 0.266 | 1002.5
290.25 K, x1 = 0.275 | 1002.12
290.25 K, x1 = 0.3 | 999.25
290.25 K, x1 = 0.325 | 995.232
290.25 K, x1 = 0.363 | 990.096
290.25 K, x1 = 0.382 | 987.239
290.25 K, x1 = 0.407 | 983.056
290.25 K, x1 = 0.414 | 982.887
290.25 K, x1 = 0.486 | 968.242
290.25 K, x1 = 0.488 | 965.719
290.25 K, x1 = 0.546 | 941.205
290.25 K, x1 = 0.573 | 924.811
290.25 K, x1 = 0.587 | 914.293
290.25 K, x1 = 0.615 | 896.918
290.26 K, x1 = 0.338 | 993.457
290.35 K, x1 = 0.246 | 1007.56
290.35 K, x1 = 0.3 | 998.453
290.35 K, x1 = 0.338 | 992.611
290.35 K, x1 = 0.363 | 989.111
290.35 K, x1 = 0.382 | 986.379
290.35 K, x1 = 0.407 | 982.318
290.35 K, x1 = 0.414 | 981.695
290.35 K, x1 = 0.486 | 966.969
290.35 K, x1 = 0.546 | 939.634
290.35 K, x1 = 0.573 | 919.469
290.35 K, x1 = 0.587 | 912.051
290.35 K, x1 = 0.615 | 896.796
290.36 K, x1 = 0.266 | 1001.61
290.36 K, x1 = 0.275 | 1000.44
290.36 K, x1 = 0.325 | 994.188
